Reference: patent US20260250289A1, “BICYCLIC HETEROCYCLES AND THEIR USE AS WRN INHIBITORS” (Novartis AG, priority 2022, published 2026)

Assays:
[1] = target: T1, WRN helicase (aa N517-P1238) (Homo sapiens, UniProt Q14191); assay: WRN ATPase assay (DNA dependent ATP hydrolysis, ADP-Glo); assay type: biochemical; conditions: 3 hours pre-incubation, 300 micromolar ATP, FLAP26 DNA; geometric mean of at least 2
T1 construct: The core helicase motif of the WRN protein (aa N517-P1238) was produced for this assay; His (N); ZZ (N); 3C protease cleavage site (N); made in house; host or cells: Sf21 insect cells (baculovirus; virus and BIICs made in SF9)
Summary of the method: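 DNA-dependent ATP hydrolysis detected as ADP by ADP-Glo luminescence, using 300 μM ATP, 0.2 nM FLAP26 substrate and 10 nM WRN aa N517-P1238 (Tris pH 7.5 buffer, 2 mM MgCl2, 50 mM NaCl). IC50s fitted from normalized duplicate half-log dilutions; reported as geometric means of at least 2 replicates.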

SW48 cells = assay: Proliferation assay SW48 (CellTiterGlo); assay type: cell-based; conditions: Homo sapiens, SW48, 96 h, SW48 colon carcinoma cells, 96 hours, CellTiterGlo; geometric mean of at least 2; read-out: Proliferation Assay SW48 GI50
Summary of the method: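 Read-out is CellTiterGlo luminescence after 96 hours of compound exposure, with % growth calculated against day-0 and vehicle-treated ATP levels. SW48 seeded at 2,000 cells/well, dosed next day with eight 3-fold serial dilutions, 0.1% DMSO. GI50 reported as geometric mean, at least 2 replicates.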

DLD1-WRN-KO cells = assay: Proliferation assay DLD1-WRN-KO (CellTiterGlo, off-target effects); assay type: cell-based; conditions: 96 hours, geometric mean of at least 2
Summary of the method: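 DLD1 cells with CRISPR knockout of WRN were exposed overnight-seeded to eight 3-fold compound dilutions (0.1% DMSO) for 96 h at 37 °C. Viability was read as ATP by CellTiterGlo luminescence against a day-0 plate, giving GI50 and residual viability at top concentration.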

T1 sequence (Q14191 517-1238): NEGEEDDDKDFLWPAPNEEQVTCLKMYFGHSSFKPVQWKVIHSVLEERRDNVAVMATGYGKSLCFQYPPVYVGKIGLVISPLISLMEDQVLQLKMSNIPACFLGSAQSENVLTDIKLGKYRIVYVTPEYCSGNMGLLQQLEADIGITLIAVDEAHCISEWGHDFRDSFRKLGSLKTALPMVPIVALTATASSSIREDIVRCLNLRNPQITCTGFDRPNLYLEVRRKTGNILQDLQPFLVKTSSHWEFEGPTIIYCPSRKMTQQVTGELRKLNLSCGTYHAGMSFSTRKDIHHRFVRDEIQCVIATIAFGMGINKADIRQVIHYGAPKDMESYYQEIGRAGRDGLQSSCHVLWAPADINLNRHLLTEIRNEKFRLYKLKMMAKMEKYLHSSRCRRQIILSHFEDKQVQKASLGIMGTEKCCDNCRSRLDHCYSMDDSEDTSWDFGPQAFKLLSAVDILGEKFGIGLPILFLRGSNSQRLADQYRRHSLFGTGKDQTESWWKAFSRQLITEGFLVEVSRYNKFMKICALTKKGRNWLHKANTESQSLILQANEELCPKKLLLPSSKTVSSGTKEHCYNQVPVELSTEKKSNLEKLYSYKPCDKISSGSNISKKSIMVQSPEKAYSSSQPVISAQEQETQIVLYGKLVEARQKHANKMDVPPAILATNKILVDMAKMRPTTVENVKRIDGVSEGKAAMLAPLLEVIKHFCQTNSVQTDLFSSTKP

SMILES | IC50 [1] | GI50 (SW48 cells) | GI50 (DLD1-WRN-KO cells)
CC(=O)N1CCN(c2c(C)n(CC(=O)Nc3ccc(C(F)(F)F)cc3)c3nc(C4=CCCC4)nn3c2=O)CC1 [Example 110, 2-(6-(4-acetylpiperazin-1-yl)-2-(cyclopent-1-en-1-yl)-5-methyl-7-oxo-[1,2,4]triazolo[1,5-a]pyrimidin-4(7H)-yl)-N-(4-(trifluoromethyl)phenyl)acetamide] | 200 nM | 5000 nM | > 10000 nM
CON1CCN(c2nc3n(CC(=O)Nc4ccc(C(F)(F)F)cc4)c(C)c(N4CCN(C(C)=O)CC4)c(=O)n3n2)CC1 [Example 132, 2-(6-(4-acetylpiperazin-1-yl)-2-(4-methoxypiperazin-1-yl)-5-methyl-7-oxo-[1,2,4]triazolo[1,5-a]pyrimidin-4(7H)-yl)-N-(4-(trifluoromethyl)phenyl)acetamide] | 2000 nM | 10000 nM | > 10000 nM
COCC1=CCN(c2nc3n(CC(=O)Nc4ccc(C(F)(F)F)cc4)c(C)c(N4CCN(C(C)=O)CC4)c(=O)n3n2)CC1 [Example 120, 2-(6-(4-acetylpiperazin-1-yl)-2-(4-(methoxymethyl)-3,6-dihydropyridin-1(2H)-yl)-5-methyl-7-oxo-[1,2,4]triazolo[1,5-a]pyrimidin-4(7H)-yl)-N-(4-(trifluoromethyl)phenyl)acetamide] | 600 nM | 6000 nM | > 10000 nM
CCc1c(N2CCN(C(=O)c3c(F)ccc(F)c3O)CC2)c(=O)n2nc(C3=CCOCC3)nc2n1CC(=O)Nc1ccc(C(F)(F)F)cc1C [Example 68, 2-(6-(4-(3,6-difluoro-2-hydroxybenzoyl)piperazin-1-yl)-2-(3,6-dihydro-2H-pyran-4-yl)-5-ethyl-7-oxo-[1,2,4]triazolo[1,5-a]pyrimidin-4(7H)-yl)-N-(2-methyl-4-(trifluoromethyl)phenyl)acetamide] | 20 nM | 100 nM | > 10000 nM
CC(=O)N1CCN(c2c(C3CC3)n(CC(=O)Nc3ccc(C(F)(F)F)cc3)c3nc(C4=CCOCC4)nn3c2=O)CC1 [Example 147, 2-(6-(4-acetylpiperazin-1-yl)-5-cyclopropyl-2-(3,6-dihydro-2H-pyran-4-yl)-7-oxo-[1,2,4]triazolo[1,5-a]pyrimidin-4(7H)-yl)-N-(4-(trifluoromethyl)phenyl)acetamide] | 600 nM | 6000 nM | > 10000 nM
CCc1ccc(NC(=O)Cn2c(C)c(N3CCN(C(C)=O)CC3)c(=O)n3nc(C4=CCOCC4)nc23)cc1Cl [Example 30, 2-(6-(4-acetylpiperazin-1-yl)-2-(3,6-dihydro-2H-pyran-4-yl)-5-methyl-7-oxo-[1,2,4]triazolo[1,5-a]pyrimidin-4(7H)-yl)-N-(3-chloro-4-ethylphenyl)acetamide] | 100 nM | 2000 nM | > 10000 nM
CCc1ccc(NC(=O)Cn2c(C)c(N3CCN(C(C)=O)CC3)c(=O)n3nc(C4=CCCCO4)nc23)cc1Cl [Example 31, 2-(6-(4-acetylpiperazin-1-yl)-2-(3,4-dihydro-2H-pyran-6-yl)-5-methyl-7-oxo-[1,2,4]triazolo[1,5-a]pyrimidin-4(7H)-yl)-N-(3-chloro-4-ethylphenyl)acetamide] | 200 nM | 6000 nM | > 10000 nM
CCc1c(N2CCN(C(=O)c3ncnc(C)c3OC)CC2)c(=O)n2nc(C3=CCOCC3)nc2n1CC(=O)Nc1ccc(C(F)(F)F)cc1C [Example 34, 2-(2-(3,6-dihydro-2H-pyran-4-yl)-5-ethyl-6-(4-(5-methoxy-6-methylpyrimidine-4-carbonyl)piperazin-1-yl)-7-oxo-[1,2,4]triazolo[1,5-a]pyrimidin-4(7H)-yl)-N-(2-methyl-4-(trifluoromethyl)phenyl)acetamide] | 5000 nM | 7000 nM | > 10000 nM
Cc1c(N2CCN(C(=O)c3c[nH]c(=O)cn3)CC2)c(=O)n2nc(N3CCOCC3)nc2n1CC(=O)Nc1ccc(C(F)(F)F)cc1 [Example 166, 2-(5-methyl-2-morpholino-7-oxo-6-(4-(5-oxo-4,5-dihydropyrazine-2-carbonyl)piperazin-1-yl)-[1,2,4]triazolo[1,5-a]pyrimidin-4(7H)-yl)-N-(4-(trifluoromethyl)phenyl)acetamide] | 100 nM | > 10000 nM | > 10000 nM
CC(=O)N1CCN(c2c(C)n(CC(=O)Nc3ccc(C(F)(F)F)cc3)c3nc(C4=CCN(CC(F)F)CC4)nn3c2=O)CC1 [Example 119, 2-(6-(4-acetylpiperazin-1-yl)-2-(1-(2,2-difluoroethyl)-1,2,3,6-tetrahydropyridin-4-yl)-5-methyl-7-oxo-[1,2,4]triazolo[1,5-a]pyrimidin-4(7H)-yl)-N-(4-(trifluoromethyl)phenyl)acetamide] | 600 nM | 6000 nM | > 10000 nM
Cc1c(N2CCN(C(=O)c3cncc(F)c3O)CC2)c(=O)n2nc(C3=CCOCC3)nc2n1CC(=O)Nc1ccc(C(F)(F)F)cc1 [Example 22, 2-(2-(3,6-dihydro-2H-pyran-4-yl)-6-(4-(5-fluoro-4-hydroxynicotinoyl)piperazin-1-yl)-5-methyl-7-oxo-[1,2,4]triazolo[1,5-a]pyrimidin-4(7H)-yl)-N-(4-(trifluoromethyl)phenyl)acetamide] | 100 nM | > 10000 nM | > 10000 nM
CC(=O)N1CCN(c2c(C)n(CC(=O)Nc3ccc(C(F)(F)F)cc3)c3nc(-c4cnc(C)o4)nn3c2=O)CC1 [Example 135, 2-(6-(4-acetylpiperazin-1-yl)-5-methyl-2-(2-methyloxazol-5-yl)-7-oxo-[1,2,4]triazolo[1,5-a]pyrimidin-4(7H)-yl)-N-(4-(trifluoromethyl)phenyl)acetamide] | 400 nM | > 10000 nM | > 10000 nM
CC(=O)N1CCN(c2c(C)n(CC(=O)Nc3cc(Cl)c(C(F)(F)F)cc3C)c3nc(C4=CCOCC4)nn3c2=O)CC1 [Example 108, 2-(6-(4-acetylpiperazin-1-yl)-2-(3,6-dihydro-2H-pyran-4-yl)-5-methyl-7-oxo-[1,2,4]triazolo[1,5-a]pyrimidin-4(7H)-yl)-N-(5-chloro-2-methyl-4-(trifluoromethyl)phenyl)acetamide] | 200 nM | 900 nM | > 10000 nM
CCc1ccc(NC(=O)Cn2c(C)c(N3CCN(C(C)=O)CC3)c(=O)n3nc(C4=CCOCC4)nc23)cc1F [Example 92, 2-(6-(4-acetylpiperazin-1-yl)-2-(3,6-dihydro-2H-pyran-4-yl)-5-methyl-7-oxo-[1,2,4]triazolo[1,5-a]pyrimidin-4(7H)-yl)-N-(4-ethyl-3-fluorophenyl)acetamide] | 700 nM | 4000 nM | > 10000 nM
CC(=O)N1CCN(c2c(C)n(CC(=O)Nc3ccc(C(F)(F)F)cc3)c3nc(C4=CCCOC4)nn3c2=O)CC1 [Example 126, 2-(6-(4-acetylpiperazin-1-yl)-2-(5,6-dihydro-2H-pyran-3-yl)-5-methyl-7-oxo-[1,2,4]triazolo[1,5-a]pyrimidin-4(7H)-yl)-N-(4-(trifluoromethyl)phenyl)acetamide] | 800 nM | 4000 nM | > 10000 nM
CCc1c(N2CCN(C(=O)c3c(O)ccc4ccncc34)CC2)c(=O)n2nc(C3=CCOCC3)nc2n1CC(=O)Nc1ccc(C(F)(F)F)cc1C [Example 40, 2-(2-(3,6-dihydro-2H-pyran-4-yl)-5-ethyl-6-(4-(7-hydroxyisoquinoline-8-carbonyl)piperazin-1-yl)-7-oxo-[1,2,4]triazolo[1,5-a]pyrimidin-4(7H)-yl)-N-(2-methyl-4-(trifluoromethyl)phenyl)acetamide] | 40 nM | 600 nM | > 10000 nM
CC(=O)N1CCN(c2c(C)n(CC(=O)Nc3ccc(C(F)(F)F)cc3)c3nc(-c4ccc(CN(C)C(=O)OC(C)(C)C)cc4)nn3c2=O)CC1 [Example 95, tert-butyl (4-(6-(4-acetylpiperazin-1-yl)-5-methyl-7-oxo-4-(2-oxo-2-((4-(trifluoromethyl)phenyl)amino)ethyl)-4,7-dihydro-[1,2,4]triazolo[1,5-a]pyrimidin-2-yl)benzyl)(methyl)carbamate] | 800 nM | 2000 nM | > 10000 nM
CCc1c(N2CCN(C(C)=O)CC2)c(=O)n2nc(C3=CCOCC3)nc2n1CC(=O)Nc1ccc(C(F)(F)F)cc1 [Example 54, 2-(6-(4-acetylpiperazin-1-yl)-2-(3,6-dihydro-2H-pyran-4-yl)-5-ethyl-7-oxo-[1,2,4]triazolo[1,5-a]pyrimidin-4(7H)-yl)-N-(4-(trifluoromethyl)phenyl)acetamide] | 100 nM | 1000 nM | > 10000 nM
CC(=O)N1CCN(c2c(C)n(CC(=O)Nc3ccc(S(F)(F)(F)(F)F)cc3)c3nc(C4=CCOCC4)nn3c2=O)CC1 [Example 78, 2-(6-(4-acetylpiperazin-1-yl)-2-(3,6-dihydro-2H-pyran-4-yl)-5-methyl-7-oxo-[1,2,4]triazolo[1,5-a]pyrimidin-4(7H)-yl)-N-(4-(pentafluoro-l6-sulfaneyl)phenyl)acetamide] | 200 nM | 3000 nM | > 10000 nM
